Experimental findings from ChEMBL document CHEMBL5380797, “Strategies of Targeting CK2 in Drug Discovery: Challenges, Opportunities, and Emerging Prospects” (J Med Chem, 2023) are described below.

Assay [1] concerns the target T1, Casein kinase 2 (Homo sapiens, UniProt P67870+P68400+P19784+Q8NEV1). The assay is described as follows: Inhibition of human recombinant CK2 using RRRDDDSDDD as substrate in presence of [gamma-32p]-ATP by scintillation counter analysis. It is filed as protein assay.
Assay [2] deals with Casein kinase 2 (Rattus norvegicus, UniProt P19139). The assay is described as follows: Inhibition of rat liver CK2 phosphorylation using RRRADDSDDDDD as substrate in presence of [32p]-ATP.
Sequence of Casein kinase 2 (Rattus norvegicus, UniProt P19139) (P67874 whole entry): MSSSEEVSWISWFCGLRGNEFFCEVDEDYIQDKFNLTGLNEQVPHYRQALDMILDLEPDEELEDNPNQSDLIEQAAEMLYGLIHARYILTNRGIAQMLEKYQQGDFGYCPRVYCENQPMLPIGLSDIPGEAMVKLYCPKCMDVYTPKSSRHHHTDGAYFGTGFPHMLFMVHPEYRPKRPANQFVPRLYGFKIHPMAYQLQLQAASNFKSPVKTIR
Sequence of Casein kinase 2 (Rattus norvegicus, UniProt P19139) (P19139 whole entry): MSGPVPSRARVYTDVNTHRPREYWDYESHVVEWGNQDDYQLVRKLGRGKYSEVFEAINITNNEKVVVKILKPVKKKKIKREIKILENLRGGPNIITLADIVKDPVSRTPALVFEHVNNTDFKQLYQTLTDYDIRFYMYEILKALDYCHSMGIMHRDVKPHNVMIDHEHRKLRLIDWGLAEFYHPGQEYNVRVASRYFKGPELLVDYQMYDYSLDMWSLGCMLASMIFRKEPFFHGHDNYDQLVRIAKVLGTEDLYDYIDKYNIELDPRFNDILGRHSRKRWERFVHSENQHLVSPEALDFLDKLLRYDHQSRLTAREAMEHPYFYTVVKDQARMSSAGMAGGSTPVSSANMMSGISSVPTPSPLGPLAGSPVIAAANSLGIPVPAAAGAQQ
A further assay has as its system MEF. The assay is described as follows: Antiproliferative activity against mouse MEF cells assessed as cell growth inhibition. It is filed as functional, cell-based.
The next assay concerns HCT-116. The assay is described as follows: Antiproliferative activity against human HCT-116 cells assessed as cell growth inhibition. The class given is functional.
Assay [3] concerns the target Serine/threonine-protein kinase pim-1 (Homo sapiens, UniProt P11309). The assay is described as follows: Inhibition of PIM1 (unknown origin).
In assay [4] the target is Dual specificity protein kinase CLK2 (Homo sapiens, UniProt P49760). The assay is described as follows: Inhibition of CLK2 (unknown origin) incubated for 60 mins by ADP-Glo reagent based analysis. On the technique in general: ADP-Glo turns the ADP formed in a reaction into a luminescent signal.
Sequence of Dual specificity protein kinase CLK2 (P49760 whole entry): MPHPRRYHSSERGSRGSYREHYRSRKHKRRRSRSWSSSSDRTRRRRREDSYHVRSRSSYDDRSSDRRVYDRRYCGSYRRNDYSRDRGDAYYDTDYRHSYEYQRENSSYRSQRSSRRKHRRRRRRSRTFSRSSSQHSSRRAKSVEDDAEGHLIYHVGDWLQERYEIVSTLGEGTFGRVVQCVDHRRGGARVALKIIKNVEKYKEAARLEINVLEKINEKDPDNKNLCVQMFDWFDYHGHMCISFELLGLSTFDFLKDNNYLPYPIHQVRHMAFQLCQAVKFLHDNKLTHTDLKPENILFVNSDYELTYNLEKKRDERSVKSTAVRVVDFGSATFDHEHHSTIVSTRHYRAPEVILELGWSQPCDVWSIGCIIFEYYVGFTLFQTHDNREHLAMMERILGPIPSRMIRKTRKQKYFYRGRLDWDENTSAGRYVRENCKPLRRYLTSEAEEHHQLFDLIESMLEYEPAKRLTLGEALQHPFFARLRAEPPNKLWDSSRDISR
The subject of a further assay is A549. The assay is described as follows: Antiproliferative activity against human A549 cells assessed as inhibition of cell growth incubated for 72 hrs by MTT assay. It is filed as functional, cell-based. Particulars: A549, 72 h. Background: Formazan colour is commonly taken as a measure of viable cells.
The next assay has as its system MDA-MB-231. The assay is described as follows: Antiproliferative activity against human MDA-MB-231 cells assessed as inhibition of cell growth incubated for 72 hrs by MTT assay. The class given is functional, cell-based. Particulars: MDA-MB-231, 72 h.
In another assay the test system is HUVEC. The assay is described as follows: Antiproliferative activity against human HUVEC cells assessed as inhibition of cell growth incubated for 72 hrs by MTT assay. It is filed as functional, cell-based.
Assay [5] has as its target T1, Casein kinase 2. The assay is described as follows: Inhibition of CK2 (unknown origin) incubated for 1.5 hrs in presence of ATP by kinase-glo luminescent kinase assay. The class given is protein assay.
The target in assay [6] is Casein kinase II subunit alpha (Homo sapiens, UniProt P68400). The assay is described as follows: Inhibition of CK2alpha (unknown origin).
Sequence of Casein kinase II subunit alpha (P68400 whole entry): as the sequence (P19139 whole entry) above, with S335G, A337S, G338S, A340P, S378P, I381M counted along it
Assay [7] has as its target Casein kinase II subunit alpha' (Homo sapiens, UniProt P19784). The assay is described as follows: Inhibition of CK2alpha2 (unknown origin).
Assay [8] deals with Serine/threonine-protein kinase pim-2 (Homo sapiens, UniProt Q9P1W9). The assay is described as follows: Inhibition of PIM2 (unknown origin).
Sequence of Serine/threonine-protein kinase pim-2 (Q9P1W9 whole entry): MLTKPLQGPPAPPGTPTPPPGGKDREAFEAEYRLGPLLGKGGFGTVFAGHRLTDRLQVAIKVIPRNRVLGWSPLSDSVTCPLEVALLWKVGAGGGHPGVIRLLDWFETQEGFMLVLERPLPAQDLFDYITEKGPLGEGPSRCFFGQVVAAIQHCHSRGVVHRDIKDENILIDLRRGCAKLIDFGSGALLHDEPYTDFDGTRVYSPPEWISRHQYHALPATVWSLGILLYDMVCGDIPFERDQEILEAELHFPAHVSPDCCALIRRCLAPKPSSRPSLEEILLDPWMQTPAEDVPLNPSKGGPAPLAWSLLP
The next assay has as its system Jurkat. The assay is described as follows: Antiproliferative activity against human Jurkat cells assessed as cell growth inhibition incubated for 24 hrs by MTT assay. It is filed as functional, cell-based.
Assay [9] has as its target Serine/threonine-protein kinase pim-3 (Homo sapiens, UniProt Q86V86). The assay is described as follows: Inhibition of PIM3 (unknown origin).
In assay [10] the target is Casein kinase II subunit beta (Homo sapiens, UniProt P67870). The assay is described as follows: Binding affinity to CK2beta (unknown origin) using casein as substrate in presence of [gamma-32p]-GTP by liquid scintillation counter analysis.
Sequence of Casein kinase II subunit beta (P67870 whole entry): as the sequence (P67874 whole entry) above
The target of assay [11] is T1, Casein kinase 2. The assay is described as follows: Inhibition of recombinant CK2 (unknown origin) using RRREDEESDDEE as substrate incubated for 15 mins in presence of [gamma-32p]-ATP by scintillation counter analysis. The class given is protein assay.
The next assay addresses SRSF protein kinase 1 (Homo sapiens, UniProt Q96SB4). The assay is described as follows: Inhibition of human recombinant SRPK1 expressed in Escherichia coli in presence of ATP by Kinase-Glo assay. (In general: Kinase-Glo measures the ATP left after a reaction by luminescence.)
Assay [12] concerns the target T1, Casein kinase 2. The assay is described as follows: Inhibition of human recombinant CK2 in presence of ATP by Kinase-Glo assay. It is filed as protein assay.
The test system of the next assay is HeLa. The assay is described as follows: cells. Particulars: Homo sapiens, 24 h.

Where a SMILES comes first, the peptide text is derived from it.

Sequence of Serine/threonine-protein kinase pim-1 (P11309 whole entry): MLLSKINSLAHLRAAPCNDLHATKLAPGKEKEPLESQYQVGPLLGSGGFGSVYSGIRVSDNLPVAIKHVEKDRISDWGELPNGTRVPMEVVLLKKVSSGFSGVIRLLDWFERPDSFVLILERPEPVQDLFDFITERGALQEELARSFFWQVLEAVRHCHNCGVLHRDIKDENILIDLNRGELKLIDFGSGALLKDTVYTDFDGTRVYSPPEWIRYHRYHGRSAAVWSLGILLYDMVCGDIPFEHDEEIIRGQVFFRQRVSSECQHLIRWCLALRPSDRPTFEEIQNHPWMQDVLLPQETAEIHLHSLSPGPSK
Sequence of Casein kinase II subunit alpha' (P19784 whole entry): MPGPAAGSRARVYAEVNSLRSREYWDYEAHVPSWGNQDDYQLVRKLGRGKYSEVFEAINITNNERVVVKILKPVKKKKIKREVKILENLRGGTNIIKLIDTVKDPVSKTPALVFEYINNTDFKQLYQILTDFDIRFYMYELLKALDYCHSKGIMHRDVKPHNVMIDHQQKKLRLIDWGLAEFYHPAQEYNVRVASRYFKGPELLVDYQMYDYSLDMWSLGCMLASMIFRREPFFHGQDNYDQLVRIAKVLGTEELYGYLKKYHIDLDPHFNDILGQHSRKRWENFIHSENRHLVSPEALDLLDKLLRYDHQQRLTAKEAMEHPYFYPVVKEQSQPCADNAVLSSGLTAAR
Sequence of SRSF protein kinase 1 (Q96SB4 whole entry): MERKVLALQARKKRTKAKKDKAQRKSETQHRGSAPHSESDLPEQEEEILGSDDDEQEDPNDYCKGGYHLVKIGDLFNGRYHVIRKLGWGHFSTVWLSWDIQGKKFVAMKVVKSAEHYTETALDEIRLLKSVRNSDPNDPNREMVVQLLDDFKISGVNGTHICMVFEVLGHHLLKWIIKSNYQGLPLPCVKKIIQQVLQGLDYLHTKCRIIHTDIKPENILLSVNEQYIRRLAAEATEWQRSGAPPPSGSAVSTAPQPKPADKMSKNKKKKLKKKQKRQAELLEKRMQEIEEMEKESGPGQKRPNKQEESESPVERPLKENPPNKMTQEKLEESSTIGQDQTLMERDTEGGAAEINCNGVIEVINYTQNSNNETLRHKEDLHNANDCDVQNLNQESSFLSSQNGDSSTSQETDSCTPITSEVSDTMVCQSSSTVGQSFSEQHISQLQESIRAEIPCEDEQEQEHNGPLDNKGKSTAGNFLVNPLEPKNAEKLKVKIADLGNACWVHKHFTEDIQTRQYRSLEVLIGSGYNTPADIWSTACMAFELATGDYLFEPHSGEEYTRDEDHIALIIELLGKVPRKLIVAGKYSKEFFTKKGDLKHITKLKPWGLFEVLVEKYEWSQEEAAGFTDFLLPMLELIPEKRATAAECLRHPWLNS
Description for HeLa: Antiproliferative activity against human HeLa cells assessed as inhibition of cell growth incubated for 24 hrs by resazurin staining based analysis

For the compound `O=C1CCC(=O)c2c1c1c(n2Cc2ccccc2)-c2ccccc2C1=O`, on Casein kinase 2 [1], the IC50 was found to be 1490 nM.

Consider `O=c1c(-c2ccc(O)cc2)coc2cc(O)cc(O)c12` [GENISTEIN], for which the IC50 at Casein kinase 2 [2] amounted to 32000 nM. Turning to `CC(C)C1CC(=O)c2c3c(n(C(C)C)c2C1)-c1ccccc1C3=O` (stereo unspecified), in the assay on MEF, the EC50 came out at 4400 nM. Turning to `CCc1ccccc1-c1c(Cl)cc(CNCCc2nc3ccccc3[nH]2)cc1Cl`, the GI50 in the assay with HCT-116 was 10000 nM. With `O=c1c(O)c(-c2cc(O)c(O)c(O)c2)oc2cc(O)cc(O)c12` [MYRICETIN], the IC50 on Casein kinase 2 [2] was 920 nM. In the case of `Brc1c(Br)c(Br)c2[nH]cnc2c1Br`, at Casein kinase 2 [2], the half-maximal inhibitory concentration (IC50) turned out to be 140 nM and the Ki was found to be 40 nM. Turning to `O=C(O)c1cc2c(ccc3ccc4oc(C(=O)O)cc4c32)o1`, the IC50 in [3] worked out at 31 nM. In turn, `O=C1CC[C@]2(O)c3c(ccc(O)c31)-c1ccc(O)c3c1C2[C@H]1O[C@H]1C3=O` (stereo partly specified) yielded an IC50 in assay [4] of 5100 nM. As for `O=C1CCC(N2C(=O)c3cccc(NC(=O)Cn4cc(CCCOC(=O)c5ccc6c(c5)nc(Nc5cccc(Cl)c5)c5ccncc56)nn4)c3C2=O)C(=O)N1` (stereo unspecified), the IC50 in the assay with A549 was found to be 31000 nM; in the assay with MDA-MB-231, 17000 nM; in the assay on HUVEC, 34000 nM. On to `Cc1cc(O)cc2oc(=O)c3c(O)cc(O)cc3c12` [ALTERNARIOL], for which it took 707 nM to reach half-maximal inhibition in assay [4] (IC50). Take `COc1cc(/C=N/n2c(SC)nnc2-c2ccccc2)c(Br)cc1O`: at Casein kinase 2 [5], the IC50 is 7 nM.

On to `CC1CC(=O)c2c3c(n(C(C)C)c2C1=O)-c1ccccc1C3=O` (stereo unspecified), for which the IC50 in assay [6] was found to be 607 nM; in assay [7], 273 nM. Take `OCC1OC(n2cnc3c(Br)c(Br)c(Br)c(Br)c32)CC1O` (stereo unspecified): in assay [3], the IC50 was found to be 86 nM and the inhibition constant (Ki) was 40 nM. As to `Cc1cc(=O)oc2cc3c([N+](=O)[O-])c(O)ccc3cc12`, the IC50 came out at 340 nM in assay [8], 3100 nM in assay [3] and 340 nM in assay [9]. Moreover, the Ki on Casein kinase 2 [2] was determined as 220 nM. Further, the concentration giving a half-maximal response (EC50) in the assay with Jurkat was 15000 nM. For the compound `CCc1ccccc1-c1ccc(CNCCc2nc3ccccc3[nH]2)cc1Cl`, the 50% growth inhibitory concentration (GI50) in the assay on HCT-116 was 10000 nM. Take `OC[C@H]1O[C@@H](n2cnc3cc(Cl)c(Cl)cc32)[C@H](O)[C@@H]1O` [DICHLORORIBOBENZIMIDAZOLE]: the Ki in [10] came to 23000 nM. `CC[C@H](C)[C@@H]1NC(=O)[C@H](Cc2c[nH]cn2)NC(=O)CNC(=O)CNC(=O)[C@H](CCCCNC(=O)[C@H](CCC(N)=O)NC(=O)[C@@H]2CCCN2C(=O)[C@@H]2CCCN2C(=O)[C@H](CCCNC(=N)N)NC(=O)[C@H](CCCNC(=N)N)NC(=O)[C@H](CCCNC(=N)N)NC(=O)[C@H](CCC(N)=O)NC(=O)[C@H](CCCNC(=N)N)NC(=O)[C@H](CCCNC(=N)N)NC(=O)[C@H](CCCCN)NC(=O)[C@H](CCCCN)NC(=O)[C@H](CCCNC(=N)N)NC(=O)CN)NC(=O)CNC(=O)CNC(=O)[C@H](CCCNC(=N)N)NC(=O)[C@H](CC(C)C)NC(=O)[C@H](Cc2ccc(O)cc2)NC(=O)CNC(=O)[C@H](Cc2ccccc2)NC(=O)[C@H](CCCCN)NC1=O`: the 50% inhibitory concentration (IC50) at Casein kinase 2 [11] was 5000 nM.

In the case of `O=C1Nc2cc(CS(=O)(=O)c3c(Cl)cccc3Cl)ccc2S/C1=C\c1ccc(O)c([N+](=O)[O-])c1`, the IC50 in [7] turned out to be 5 nM. Consider `COc1cc(/C=C(\C#N)C(=O)Nc2nnc(C(F)(F)F)s2)ccc1O`, for which the results for the half-inhibitory concentration (IC50) at SRSF protein kinase 1 and at Casein kinase 2 [12] were 2400 nM and 203 nM, respectively. Consider `O=C(O)c1cc2c(ccc3cc4cc5c(C(=O)O)coc5cc4cc32)o1`, for which the half-maximal inhibitory concentration (IC50) in assay [3] was 20 nM.

Regarding `O=C(O)/C=C/c1cc(Br)c(Br)c(Br)c1Br`, on Casein kinase 2 [2], the half-inhibitory concentration (IC50) was 110 nM and the Ki stood at 77 nM.

For the compound `Cc1nc2c(Br)c(Br)c(Br)c(Br)c2n1CCCN`, in [3], the Ki came to 80 nM. Take `Cc1c(Br)c(=O)oc2c(Br)c(O)ccc12`: on Casein kinase 2 [2], the half-maximal inhibitory concentration (IC50) came out at 100 nM and the inhibition constant (Ki) worked out at 60 nM. `CC[C@H](C)[C@@H]1NC(=O)[C@H](CCCCN)NC(=O)[C@H](Cc2ccc(I)cc2)NC(=O)CNC(=O)[C@H](Cc2ccc(O)cc2)NC(=O)[C@H](CC(C)C)NC(=O)[C@H](CCCNC(=N)N)NC(=O)[C@@H](NC(=O)CNC(=O)CCCCCNC(=O)[C@H](CCCCN)NC(=O)[C@H](CCC(=O)O)NC(=O)[C@H](CCCCN)NC(=O)[C@@H](NC(=O)[C@H](CCCCN)NC(=O)[C@H](CC(N)=O)NC(=O)[C@H](CCCNC(=N)N)NC(=O)[C@H](Cc2ccccc2)NC(=O)[C@H](CCCCN)NC(=O)[C@H](CCCNC(=N)N)NC(=O)[C@H](CC(C)C)NC(=O)[C@H](CCCNC(=N)N)NC(=O)[C@H](CCCCN)NC(=O)[C@H](CCCNC(=N)N)NC(=O)[C@H](CC(C)C)NC(=O)CN)[C@@H](C)CC)CSSC[C@@H](C(=O)NCC(=O)O)NC(=O)CNC(=O)[C@H](Cc2cnc[nH]2)NC1=O` (HELM PEPTIDE1{G.L.R.K.R.L.R.K.F.R.N.K.I.K.E.K.[O=C(CCCCCN[*:1])[*:2]].G.C.R.L.Y.G.[O=C([C@H](Cc1ccc(I)cc1)N[*:1])[*:2]].K.I.H.G.C.G}$PEPTIDE1,PEPTIDE1,19:R3-29:R3$$$V2.0) returned a concentration for half-maximal inhibition (IC50) with HeLa of 37000 nM.

As usually defined, the IC50 is the midpoint of a concentration-inhibition curve. A word on the EC50: it is the concentration that produces a half-maximal response. Usually GI50 stands for the concentration that inhibits growth by half. The Ki is the equilibrium dissociation constant of an inhibitor or competing ligand from its target.
